# From patent EP3717657B1, “A SYSTEM FOR ASSESSING MICROBIAL SUSCEPTIBILITY TO ANTIBIOTIC AGENTS” (Ascilion AB, priority 2017, dated 2019)
# Columns and labels:
# [1] = test system: Escherichia coli (ATCC 25922); assay: Antibiotic susceptibility by glucose consumption in culture medium, blood culture bottle inoculum (Example 1); format: cell-based; details: for Glucose concentration t=0: 0 minutes; for Glucose concentration t=60: 60 minutes; for Glucose concentration t=120: 120 minutes; for Glucose concentration t=180: 180 minutes; for dC/dT: rate of change in glucose concentration; for Glucose concentration t=240: 240 minutes;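 for dC/dT: rate calculated between the 60 and 180 min readings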
# Method: (§1) Strains of Escherichia coli (ATCC 25922), Enterococcus faecalis (ATCC 29212) and Staphylococcus aureus (ATCC 29213) were inoculated in blood culture bottles (SVA, Uppsala, Sweden) and cultivated according to the manufacturer's instructions until positive.
# (§2) Medium from each blood culture bottle was diluted 1:100 with cation adjusted Mueller-Hinton broth (SVA, Uppsala, Sweden) supplemented with glucose to a concentration of 1.0 mg/mL.
# (§3) Table 1: Concentrations of antibiotic agents are given in µg/mL.
# (§4) Glucose concentrations were measured at 0, 60, 120, 180, and 240 minutes using a WaveSense Jazz glucometer (AgaMatrix, Inc., Salem, NH, USA) with accompanying test strips.
# (§5) Susceptibility scores corresponding to MIC values were calculated as described above. A 80% threshold was applied, i.e. the lowest concentration of antibiotic that entailed a rate of change in glucose concentration that was equal to or less than 80% of the reference was selected as the Minimal Inhibitory Concentration. The rate of change was calculated between the measurements at 60 and 180 minutes.
# [2] = test system: Enterococcus faecalis (ATCC 29212); assay: as above; format: cell-based; details: for Glucose concentration t=0: 0 minutes; for Glucose concentration t=60: 60 minutes; for Glucose concentration t=120: 120 minutes; for Glucose concentration t=180: 180 minutes; for dC/dT: rate of change in glucose concentration; for Glucose concentration t=240: 240 minutes;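 for dC/dT: rate calculated between the 60 and 180 min readings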
# Method: as §1, §2, §3, §4, §5
substance,measurement,setting,value
Gentamicin,MIC Measured,"[1]; E.coli, 80% threshold of rate of change vs reference, between 60 and 180 minutes, obtained in 4 hours",1 µg/mL
same,F=the rate of change in glucose concentration in relation to the reference,"[1]; [Ab] 0,5 µg/mL",121%
same,Glucose concentration t=0,"[1]; [Ab] 0,5 µg/mL",144
same,Glucose concentration t=60,"[1]; [Ab] 0,5 µg/mL",147
same,Glucose concentration t=120,"[1]; [Ab] 0,5 µg/mL",147
same,Glucose concentration t=180,"[1]; [Ab] 0,5 µg/mL",72
same,dC/dT,"[1]; [Ab] 0,5 µg/mL",75
same,F=the rate of change in glucose concentration in relation to the reference,"[1]; [Ab] 0,25 µg/mL",139%
same,Glucose concentration t=0,"[1]; [Ab] 0,25 µg/mL",149
same,Glucose concentration t=60,"[1]; [Ab] 0,25 µg/mL",152
same,Glucose concentration t=120,"[1]; [Ab] 0,25 µg/mL",144
same,Glucose concentration t=180,"[1]; [Ab] 0,25 µg/mL",58
same,dC/dT,"[1]; [Ab] 0,25 µg/mL",86
same,F=the rate of change in glucose concentration in relation to the reference,[1]; [Ab] 1 µg/mL,77%
same,Glucose concentration t=0,[1]; [Ab] 1 µg/mL,144
same,Glucose concentration t=60,[1]; [Ab] 1 µg/mL,155
same,Glucose concentration t=120,[1]; [Ab] 1 µg/mL,148
same,Glucose concentration t=180,[1]; [Ab] 1 µg/mL,111
same,Glucose concentration t=240,[1]; [Ab] 1 µg/mL,53
same,dC/dT,[1]; [Ab] 1 µg/mL,48
same,F=the rate of change in glucose concentration in relation to the reference,[1]; [Ab] 2 µg/mL,9%
same,Glucose concentration t=60,[1]; [Ab] 2 µg/mL,161
same,Glucose concentration t=120,[1]; [Ab] 2 µg/mL,151
same,Glucose concentration t=180,[1]; [Ab] 2 µg/mL,143
same,Glucose concentration t=240,[1]; [Ab] 2 µg/mL,140
same,dC/dT,[1]; [Ab] 2 µg/mL,6
same,F=the rate of change in glucose concentration in relation to the reference,[1]; [Ab] 4 µg/mL,7%
same,Glucose concentration t=0,[1]; [Ab] 4 µg/mL,147
same,Glucose concentration t=60,[1]; [Ab] 4 µg/mL,163
same,Glucose concentration t=120,[1]; [Ab] 4 µg/mL,157
same,Glucose concentration t=180,[1]; [Ab] 4 µg/mL,148
same,Glucose concentration t=240,[1]; [Ab] 4 µg/mL,148
same,dC/dT,[1]; [Ab] 4 µg/mL,5
same,F=the rate of change in glucose concentration in relation to the reference,[1]; [Ab] 8 µg/mL,7%
same,Glucose concentration t=0,[1]; [Ab] 8 µg/mL,144
same,Glucose concentration t=60,[1]; [Ab] 8 µg/mL,156
same,Glucose concentration t=120,[1]; [Ab] 8 µg/mL,153
same,Glucose concentration t=180,[1]; [Ab] 8 µg/mL,150
same,Glucose concentration t=240,[1]; [Ab] 8 µg/mL,144
same,dC/dT,[1]; [Ab] 8 µg/mL,5
same,F=the rate of change in glucose concentration in relation to the reference,[1]; [Ab] 16 µg/mL,1%
same,Glucose concentration t=0,[1]; [Ab] 16 µg/mL,143
same,Glucose concentration t=60,[1]; [Ab] 16 µg/mL,155
same,Glucose concentration t=120,[1]; [Ab] 16 µg/mL,152
same,Glucose concentration t=180,[1]; [Ab] 16 µg/mL,149
same,Glucose concentration t=240,[1]; [Ab] 16 µg/mL,153
same,dC/dT,[1]; [Ab] 16 µg/mL,1
same,F=the rate of change in glucose concentration in relation to the reference,[1]; [Ab] 32 µg/mL,6%
same,Glucose concentration t=0,[1]; [Ab] 32 µg/mL,148
same,Glucose concentration t=60,[1]; [Ab] 32 µg/mL,158
same,Glucose concentration t=120,[1]; [Ab] 32 µg/mL,155
same,Glucose concentration t=180,[1]; [Ab] 32 µg/mL,150
same,Glucose concentration t=240,[1]; [Ab] 32 µg/mL,147
same,dC/dT,[1]; [Ab] 32 µg/mL,4
same,MIC Measured,"[2]; E.faecalis, 80% threshold of rate of change vs reference, between 60 and 180 minutes, obtained in 4 hours",2 µg/mL
same,F=the rate of change in glucose concentration in relation to the reference,"[2]; [Ab] 0,5 µg/mL",148%
same,Glucose concentration t=0,"[2]; [Ab] 0,5 µg/mL",146
same,Glucose concentration t=60,"[2]; [Ab] 0,5 µg/mL",160
same,Glucose concentration t=120,"[2]; [Ab] 0,5 µg/mL",138
same,Glucose concentration t=180,"[2]; [Ab] 0,5 µg/mL",97
same,dC/dT,"[2]; [Ab] 0,5 µg/mL",53
same,F=the rate of change in glucose concentration in relation to the reference,"[2]; [Ab] 0,25 µg/mL",144%
same,Glucose concentration t=0,"[2]; [Ab] 0,25 µg/mL",142
same,Glucose concentration t=60,"[2]; [Ab] 0,25 µg/mL",156
same,Glucose concentration t=120,"[2]; [Ab] 0,25 µg/mL",143
same,Glucose concentration t=180,"[2]; [Ab] 0,25 µg/mL",87
same,dC/dT,"[2]; [Ab] 0,25 µg/mL",52
same,F=the rate of change in glucose concentration in relation to the reference,[2]; [Ab] 1 µg/mL,106%
same,Glucose concentration t=0,[2]; [Ab] 1 µg/mL,145
same,Glucose concentration t=60,[2]; [Ab] 1 µg/mL,150
same,Glucose concentration t=120,[2]; [Ab] 1 µg/mL,138
same,Glucose concentration t=180,[2]; [Ab] 1 µg/mL,100
same,Glucose concentration t=240,[2]; [Ab] 1 µg/mL,36
same,dC/dT,[2]; [Ab] 1 µg/mL,38
same,F=the rate of change in glucose concentration in relation to the reference,[2]; [Ab] 2 µg/mL,75%
same,Glucose concentration t=0,[2]; [Ab] 2 µg/mL,147
same,Glucose concentration t=60,[2]; [Ab] 2 µg/mL,156
same,Glucose concentration t=120,[2]; [Ab] 2 µg/mL,143
same,Glucose concentration t=180,[2]; [Ab] 2 µg/mL,110
same,Glucose concentration t=240,[2]; [Ab] 2 µg/mL,75
same,dC/dT,[2]; [Ab] 2 µg/mL,27
same,F=the rate of change in glucose concentration in relation to the reference,[2]; [Ab] 4 µg/mL,46%
same,Glucose concentration t=0,[2]; [Ab] 4 µg/mL,147
same,Glucose concentration t=60,[2]; [Ab] 4 µg/mL,154
same,Glucose concentration t=120,[2]; [Ab] 4 µg/mL,151
same,Glucose concentration t=180,[2]; [Ab] 4 µg/mL,118
same,Glucose concentration t=240,[2]; [Ab] 4 µg/mL,104
same,dC/dT,[2]; [Ab] 4 µg/mL,17
same,F=the rate of change in glucose concentration in relation to the reference,[2]; [Ab] 8 µg/mL,14%
same,Glucose concentration t=0,[2]; [Ab] 8 µg/mL,143
same,Glucose concentration t=60,[2]; [Ab] 8 µg/mL,155
same,Glucose concentration t=120,[2]; [Ab] 8 µg/mL,134
same,Glucose concentration t=180,[2]; [Ab] 8 µg/mL,136
same,Glucose concentration t=240,[2]; [Ab] 8 µg/mL,140
same,dC/dT,[2]; [Ab] 8 µg/mL,5
same,F=the rate of change in glucose concentration in relation to the reference,[2]; [Ab] 16 µg/mL,18%
same,Glucose concentration t=0,[2]; [Ab] 16 µg/mL,147
same,Glucose concentration t=60,[2]; [Ab] 16 µg/mL,160
same,Glucose concentration t=120,[2]; [Ab] 16 µg/mL,152
same,Glucose concentration t=180,[2]; [Ab] 16 µg/mL,155
same,dC/dT,[2]; [Ab] 16 µg/mL,6
same,F=the rate of change in glucose concentration in relation to the reference,[2]; [Ab] 32 µg/mL,3%
same,Glucose concentration t=0,[2]; [Ab] 32 µg/mL,143
same,Glucose concentration t=60,[2]; [Ab] 32 µg/mL,151
same,Glucose concentration t=180,[2]; [Ab] 32 µg/mL,142
same,Glucose concentration t=240,[2]; [Ab] 32 µg/mL,148
same,dC/dT,[2]; [Ab] 32 µg/mL,1
